# Measured values as given in patent US11851697B2, “Ex vivo protease activity detection for disease detection/diagnostic, staging, monitoring and treatment” (Glympse Bio, Inc., priority 2020, dated 2023).
# Square brackets hold non-standard residues; d marks the D form. Primed or numbered codes have the meaning given here. Ends that are not written are not given here. CPQ2(3) = quencher on Lys side chain; FAM = fluorescent reporter; PEG2″ = PEG2 spacer; CPQ2 = quencher
# How the values were obtained:
# [1] = test system: caspase activity in hepatitis; experiment: Ex vivo probe cleavage in plasma of Jo2 fulminant hepatitis mice; type: biochemical; settings: mouse plasma 3 hours after Jo2 injection vs healthy
# Protocol: Fulminant hepatitis is induced after injection intraperitoneal of monoclonal antibody anti-CD95 (Jo2, BD biosciences, 4 ug/animal), and mouse plasma samples were collected 3 hours after Jo2 injection.
# COVID-related proteases = experiment: Ex vivo probe cleavage in COVID vs healthy K2EDTA and Lithium Heparin plasma; type: biochemical
# [2] = cited from earlier work
# [3] = test system: cathepsin and/or MMP protease activities; experiment: Ex vivo probe cleavage in plasma of healthy, NASH regression and NASH progression mice; type: biochemical; settings: K2EDTA plasma collected at 20 weeks
# Source text: Plasma samples were collected from all animals at 20 weeks.
# The probes showing the most differentiation in NASH were linked to cathepsin and/or MMP protease activities.
# [4] = test system: proteases in NASH and healthy plasma cleaving Probe #102; experiment: Inhibitor profiling of Probe #102 cleavage in NASH and healthy plasma; type: biochemical, mice
# Protocol: For this experiment, all plasma samples were prepared individually and diluted 1/10e in PBS with inhibitor added directly to the samples. Inhibitor was prepared at 15× concentration to final. Substrates were diluted in DI water at 18 uM, such that the final concentration on the plate would be 6 uM. All samples were prepared such that their last dilution on the plate would not affect the desired final concentration. 10 ul of each individual sample was pipetted into their corresponding wells, and the plate was then spun down in the centrifuge at 1500 RPM for 30 seconds to coat the bottom of each well with the sample. 5 ul of the 18 uM substrate solution was pipetted into each well being used on a 384 well plate, and then the plate was spun down in the centrifuge at 1500 rpm for 30 seconds. The plate was placed immediately in the plate reader at 37° C. for a 30-minute-long fluorescence kinetic read at 485/535 extended gain.
# To assess the proteolytic cleavage pattern of Probe #102, samples were tested using a pool of broad inhibitors for serine, cysteine, threonine, MMP and aspartic protease family members (broad inhibitor) to assess general protease activity, AEBSF for serine proteases, E64 for cysteine proteases, CTSi for broad cathepsin inhibition of cathepsins L, S, K and B, or specific inhibitors for cathepsin K (L00625), for cathepsin L (SID) or cathepsin B (CA074).
# [5] = both K2EDTA and Lithium Heparin plasma sets
molecule,measurement,setting,value
"Probe #12: Caspase centric probe (GDEVDGK; not fully specified; 5-FAM, CPQ2 quencher, PEG2; MOD_RES (7)..(7) Lys modified with a CPQ2 quencher)",contrast in Jo2 hepatitis model,[1],show contrast that is specific and sensitive to the Jo2 model
"Probe #462: a MMP8 substrate (GKKAKRNALGK(CPQ2); not fully specified (N-terminus, C-terminus); also: FAM (place not given here), PEG2, DLys-DLys-GC (place not given here))",differential cleavage between COVID and healthy samples,COVID-related proteases; [5],demonstrated contrast in both sets
"Probe #409: the SARS CoV2 coronavirus substrate (SARS-COV2 3C protease) (GTSAVLQSGFRKGK(CPQ2); not fully specified (N-terminus, C-terminus); also: 5-FAM (place not given here), PEG2-kk-GC (place not given here))",differential cleavage between COVID and healthy samples,COVID-related proteases; K2 EDTA samples,modest contrast
O=c1nc(-c2cc(C(=C(c3ccccc3)c3ccccc3)c3ccccc3)ccc2O)[nH]c2ccc(Cl)cc12 [HTPQ],solubility in water,[2],strictly insoluble in water
Probe #492: probe of Table 1 ({FAM}-GQRANSIRVTWGK(CPQ2(3))[PEG2″][dK][dK]GC; not fully specified; printed as (FAM)-GQRANSIRVTWG-K(CPQ2)-(PEG2)-DLys-DLys-GC),"differentiation among healthy, regression and NASH samples",[3],can differentiate
CN1CCN(c2nc(-c3ccc(C(=O)NC4(C(=O)NCC#N)CCCCC4)cc3)cs2)CC1 [Probe L006235],effect on signal for NASH or healthy samples,[4]; Probe #102,did not significantly decrease signal
"Probe #520: probe of Table 1 (GKPISLISSGK; not fully specified; 5FAM, CPQ2 quencher, PEG2; MOD_RES (11)..(11) Lys modified with a CPQ2 quencher)","differentiation among healthy, regression and NASH samples",[3],can differentiate
"CC(C)C[C@H](NC(=O)[C@H]1O[C@@H]1C(=O)O)C(=O)NCCCCN=C(N)N [Probe E64, E64]",effect on NASH signal,"[4]; NASH plasma, Probe #102, less decrease in signal for healthy",decreased NASH signal significantly
"Probe #8: Caspase centric probe (GVDVADGK; not fully specified; 5-FAM, CPQ2 quencher, PEG2; MOD_RES (8)..(8) Lys modified with a CPQ2 quencher)",contrast in Jo2 hepatitis model,[1],show contrast that is specific and sensitive to the Jo2 model
Probe #428: probe of Table 1 ({FAM}-GDRRKKLTQGK(CPQ2(3))[PEG2″][dK][dK]GC; not fully specified; printed as (FAM)-GDRRKKLTQG-K(CPQ2)-(PEG2)-DLys-DLys-GC),"differentiation among healthy, regression and NASH samples",[3],can differentiate
Probe #102: a CTSL sensing probe; sequence in Table 1 ({FAM}-GKPILFFRLKGK(CPQ2(3))[PEG2″][dK][dK]GC; not fully specified; printed as (FAM)-GKPILFFRLKG-K(CPQ2)-PEG2-kk-GC),protease to which the probe responds,"[4]; individual cathepsin inhibitors, FIG. 30D-F",specifically responds to the activity of cathepsin L (CTSL)
same,"differentiation among healthy, regression and NASH samples",[3],can differentiate
"Probe #18: a Neutrophil elastase substrate (GAAPVGK(CPQ2); not fully specified (N-terminus, C-terminus); also: 5-FAM (place not given here), PEG2-kk-GC (place not given here))",differential cleavage between COVID and healthy samples,COVID-related proteases; [5],demonstrated contrast in both sets
CCCNC(=O)[C@H]1O[C@@H]1C(=O)N[C@H](C(=O)N1CCC[C@H]1C(=O)O)[C@@H](C)CC [CA074],effect on signal for NASH or healthy samples,[4]; Probe #102,did not significantly decrease signal
"Probe #84: a Furin substrate (GRVKRGLAGK(CPQ2); not fully specified (N-terminus, C-terminus); also: 5-FAM (place not given here), PEG2-kk-GC (place not given here))",differential cleavage between COVID and healthy samples,COVID-related proteases; [5],demonstrated contrast in both sets
"O=c1[nH]c(-c2ccccc2O)nc2ccccc12 [HPQ, 2-(2″-hydroxyphenyl)-4(3H)-quinazolinone]",solubility in water,[2],strictly insoluble in water
"Probe #96: probe of Table 1 ({FAM}-GRPLALWESQGK(CPQ2)[PEG2″][dK]GC; not fully specified; printed as (FAM)-GRPLALWESQG-K(CPQ2)-PEG2-k-GC; also: FAM, position not given here)","differentiation among healthy, regression and NASH samples",[3],can differentiate
NCCc1ccc(S(=O)(=O)F)cc1 [AEBSF],decrease of NASH signal,"[4]; NASH plasma, Probe #102",65%
same,decrease of healthy signal,"[4]; healthy plasma, Probe #102",60%
